Reference: publication PMC6576746, “Rational discovery of dual-indication multi-target PDE/Kinase inhibitor for precision anti-cancer therapy using structural systems pharmacology” (PLoS Computational Biology, 2019)

Key:
Assay in all cases: biochemical
Set-up in all cases: DiscoverX KinomeScan competition binding assay across human kinases; per cent of control at 10 and 100 uM
EPHB3 = EPHB3 (Homo sapiens, UniProt P54753); conditions: competition binding, % of control; read-out: Percent Control (100 uM Levosimendan)
Summary of the method: (§1)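 KinomeScan competition binding was run across a human kinase panel at 10 μM and 100 μM levosimendan. Results are %control = (test − positive control)/(negative control − positive control) × 100.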

[1] = target: T1, RPS6KA5(Kin.Dom.1-N-terminal) (Homo sapiens, UniProt O75582); conditions: competition binding, % of control; read-out: Percent Control (100 uM Levosimendan)
T1 construct: Kin.Dom.1-N-terminal
Summary of the method: as §1

[2] = target: T2, TYK2(JH1domain-catalytic) (Homo sapiens, UniProt P29597); conditions: competition binding, % of control
T2 construct: JH1domain-catalytic
Summary of the method: as §1

YANK3 = target: T3, YANK3 (Homo sapiens, UniProt Q86UX6); conditions: competition binding, % of control; read-out: Percent Control (100 uM Levosimendan)
T3 construct: gene STK32C
Summary of the method: as §1

PAK2 = PAK2 (Homo sapiens, UniProt Q13177); conditions: competition binding, % of control; read-out: Percent Control (100 uM Levosimendan)
Summary of the method: as §1

AURKB = AURKB (Homo sapiens, UniProt Q96GD4); conditions: competition binding, % of control
Summary of the method: as §1

BRSK2 = BRSK2 (Homo sapiens, UniProt Q8IWQ3); conditions: competition binding, % of control; read-out: Percent Control (100 uM Levosimendan)
Summary of the method: as §1

ANKK1 = ANKK1 (Homo sapiens, UniProt Q8NFD2); conditions: competition binding, % of control; read-out: Percent Control (100 uM Levosimendan)
Summary of the method: as §1

IKK-alpha = target: T4, IKK-alpha (Homo sapiens, UniProt O15111); conditions: competition binding, % of control; read-out: Percent Control (100 uM Levosimendan)
T4 construct: gene CHUK
Summary of the method: as §1

SRPK3 = SRPK3 (Homo sapiens, UniProt Q9UPE1); conditions: competition binding, % of control; read-out: Percent Control (100 uM Levosimendan)
Summary of the method: as §1

BUB1 = BUB1 (Homo sapiens, UniProt O43683); conditions: competition binding, % of control
Summary of the method: as §1

[3] = target: EGFR(L747-S752del, P753S) (Homo sapiens, UniProt P00533, DEL747-752/P753S); conditions: competition binding, % of control; read-out: Percent Control (100 uM Levosimendan)
Summary of the method: as §1

NEK7 = NEK7 (Homo sapiens, UniProt Q8TDX7); conditions: competition binding, % of control; read-out: Percent Control (100 uM Levosimendan)
Summary of the method: as §1

MEK5 = target: T5, MEK5 (Homo sapiens, UniProt Q13163); conditions: competition binding, % of control
T5 construct: gene MAP2K5
Summary of the method: as §1

CTK = target: T6, CTK (Homo sapiens, UniProt P42679); conditions: competition binding, % of control; read-out: Percent Control (100 uM Levosimendan)
T6 construct: gene MATK
Summary of the method: as §1

PIK3CA(Q546K) = PIK3CA(Q546K) (Homo sapiens, UniProt P42336, Q546K); conditions: competition binding, % of control; read-out: Percent Control (100 uM Levosimendan)
Summary of the method: as §1

AMPK-alpha1 = target: T7, AMPK-alpha1 (Homo sapiens, UniProt Q13131); conditions: competition binding, % of control; read-out: Percent Control (100 uM Levosimendan)
T7 construct: gene PRKAA1
Summary of the method: as §1

LKB1 = target: T8, LKB1 (Homo sapiens, UniProt Q15831); conditions: competition binding, % of control; read-out: Percent Control (100 uM Levosimendan)
T8 construct: gene STK11
Summary of the method: as §1

[4] = read-out: Percent Control (10 uM Levosimendan)
[5] = read-out: Percent Control (100 uM Levosimendan)

T2 sequence (P29597 whole entry): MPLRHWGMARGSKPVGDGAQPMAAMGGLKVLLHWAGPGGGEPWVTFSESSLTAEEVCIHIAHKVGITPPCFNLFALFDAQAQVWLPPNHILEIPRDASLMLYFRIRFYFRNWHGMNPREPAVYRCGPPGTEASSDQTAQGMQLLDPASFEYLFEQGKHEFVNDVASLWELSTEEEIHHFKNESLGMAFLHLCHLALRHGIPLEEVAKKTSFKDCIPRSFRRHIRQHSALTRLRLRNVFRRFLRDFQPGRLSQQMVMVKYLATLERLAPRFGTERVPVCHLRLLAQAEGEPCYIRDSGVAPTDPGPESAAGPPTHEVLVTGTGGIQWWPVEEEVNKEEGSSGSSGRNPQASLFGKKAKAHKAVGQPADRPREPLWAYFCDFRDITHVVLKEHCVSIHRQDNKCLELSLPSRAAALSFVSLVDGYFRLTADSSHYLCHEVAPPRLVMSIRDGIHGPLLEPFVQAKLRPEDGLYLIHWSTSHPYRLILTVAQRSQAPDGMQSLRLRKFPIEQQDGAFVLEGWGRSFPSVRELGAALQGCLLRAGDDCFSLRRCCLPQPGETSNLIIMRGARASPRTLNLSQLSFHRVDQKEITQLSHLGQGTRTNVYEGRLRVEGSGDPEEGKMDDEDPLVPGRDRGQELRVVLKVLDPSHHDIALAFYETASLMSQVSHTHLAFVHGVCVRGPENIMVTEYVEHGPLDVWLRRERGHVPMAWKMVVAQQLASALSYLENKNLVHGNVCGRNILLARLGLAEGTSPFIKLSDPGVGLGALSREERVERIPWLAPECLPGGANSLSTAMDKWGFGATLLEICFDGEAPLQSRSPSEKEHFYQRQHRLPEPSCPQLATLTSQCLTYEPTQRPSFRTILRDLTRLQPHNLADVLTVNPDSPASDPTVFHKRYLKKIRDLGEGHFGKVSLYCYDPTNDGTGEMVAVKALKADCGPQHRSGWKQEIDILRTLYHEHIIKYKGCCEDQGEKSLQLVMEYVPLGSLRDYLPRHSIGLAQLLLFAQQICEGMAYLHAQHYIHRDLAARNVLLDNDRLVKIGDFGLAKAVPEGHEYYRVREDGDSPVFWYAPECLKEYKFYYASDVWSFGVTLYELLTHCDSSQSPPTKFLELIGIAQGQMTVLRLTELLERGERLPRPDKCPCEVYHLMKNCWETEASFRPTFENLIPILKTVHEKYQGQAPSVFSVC
AURKB, sequence (Q96GD4 whole entry): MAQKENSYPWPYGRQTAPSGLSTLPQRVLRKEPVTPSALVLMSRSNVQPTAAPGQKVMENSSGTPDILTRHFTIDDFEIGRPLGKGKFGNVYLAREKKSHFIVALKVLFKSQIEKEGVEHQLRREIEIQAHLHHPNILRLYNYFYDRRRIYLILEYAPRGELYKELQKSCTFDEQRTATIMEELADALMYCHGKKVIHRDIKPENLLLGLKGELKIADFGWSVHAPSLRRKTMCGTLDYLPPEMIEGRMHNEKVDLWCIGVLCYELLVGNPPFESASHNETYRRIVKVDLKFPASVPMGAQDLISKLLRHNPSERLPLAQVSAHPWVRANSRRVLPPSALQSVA
BUB1, sequence (O43683 whole entry): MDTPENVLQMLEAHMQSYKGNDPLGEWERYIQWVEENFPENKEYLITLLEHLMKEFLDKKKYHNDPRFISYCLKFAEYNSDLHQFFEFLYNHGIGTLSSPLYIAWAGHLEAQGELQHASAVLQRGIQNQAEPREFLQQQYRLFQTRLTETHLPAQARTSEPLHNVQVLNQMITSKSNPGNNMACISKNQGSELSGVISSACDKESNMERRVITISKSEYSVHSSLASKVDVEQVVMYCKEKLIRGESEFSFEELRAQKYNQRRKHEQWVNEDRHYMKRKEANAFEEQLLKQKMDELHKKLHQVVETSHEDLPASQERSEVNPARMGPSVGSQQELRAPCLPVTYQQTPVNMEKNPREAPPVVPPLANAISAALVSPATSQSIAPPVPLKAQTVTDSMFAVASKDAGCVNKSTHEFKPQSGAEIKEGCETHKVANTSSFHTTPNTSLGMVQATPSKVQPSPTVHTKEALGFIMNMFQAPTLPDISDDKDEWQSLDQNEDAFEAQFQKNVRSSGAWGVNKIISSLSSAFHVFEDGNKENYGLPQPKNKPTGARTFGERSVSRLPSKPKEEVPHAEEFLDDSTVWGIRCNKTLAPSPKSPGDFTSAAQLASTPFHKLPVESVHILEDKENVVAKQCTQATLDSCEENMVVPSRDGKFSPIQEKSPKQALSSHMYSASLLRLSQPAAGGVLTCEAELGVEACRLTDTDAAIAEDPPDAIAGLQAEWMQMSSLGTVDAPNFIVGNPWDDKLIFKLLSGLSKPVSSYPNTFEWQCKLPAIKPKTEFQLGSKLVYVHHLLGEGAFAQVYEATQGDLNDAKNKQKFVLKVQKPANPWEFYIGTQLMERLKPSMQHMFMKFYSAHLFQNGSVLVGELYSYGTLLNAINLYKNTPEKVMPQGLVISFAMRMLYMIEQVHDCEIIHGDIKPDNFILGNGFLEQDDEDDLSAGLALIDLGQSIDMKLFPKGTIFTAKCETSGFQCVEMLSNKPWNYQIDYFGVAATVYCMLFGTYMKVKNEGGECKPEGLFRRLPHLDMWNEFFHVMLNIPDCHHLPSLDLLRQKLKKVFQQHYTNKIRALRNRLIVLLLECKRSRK
T5 sequence (Q13163 whole entry): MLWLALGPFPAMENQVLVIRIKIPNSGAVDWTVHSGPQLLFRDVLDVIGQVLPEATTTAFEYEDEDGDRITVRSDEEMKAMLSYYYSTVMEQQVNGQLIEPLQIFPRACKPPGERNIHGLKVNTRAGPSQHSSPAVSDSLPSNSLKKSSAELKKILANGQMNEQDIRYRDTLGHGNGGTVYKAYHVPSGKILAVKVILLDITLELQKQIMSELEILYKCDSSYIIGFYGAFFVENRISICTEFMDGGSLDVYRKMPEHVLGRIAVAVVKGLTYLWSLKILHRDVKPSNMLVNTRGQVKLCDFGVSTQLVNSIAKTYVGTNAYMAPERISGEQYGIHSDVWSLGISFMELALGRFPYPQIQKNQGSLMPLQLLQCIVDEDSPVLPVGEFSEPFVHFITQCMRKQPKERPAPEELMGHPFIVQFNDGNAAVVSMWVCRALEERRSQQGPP
NEK7, sequence (Q8TDX7 whole entry): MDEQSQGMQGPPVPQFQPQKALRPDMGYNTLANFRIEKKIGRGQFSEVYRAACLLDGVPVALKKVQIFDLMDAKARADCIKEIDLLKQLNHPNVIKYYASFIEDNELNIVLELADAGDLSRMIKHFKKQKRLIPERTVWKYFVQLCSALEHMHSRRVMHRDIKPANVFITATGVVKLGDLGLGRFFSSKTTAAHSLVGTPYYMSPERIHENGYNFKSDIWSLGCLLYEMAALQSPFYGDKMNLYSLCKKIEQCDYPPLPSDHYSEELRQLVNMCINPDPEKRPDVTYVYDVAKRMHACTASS
T6 sequence (P42679 whole entry): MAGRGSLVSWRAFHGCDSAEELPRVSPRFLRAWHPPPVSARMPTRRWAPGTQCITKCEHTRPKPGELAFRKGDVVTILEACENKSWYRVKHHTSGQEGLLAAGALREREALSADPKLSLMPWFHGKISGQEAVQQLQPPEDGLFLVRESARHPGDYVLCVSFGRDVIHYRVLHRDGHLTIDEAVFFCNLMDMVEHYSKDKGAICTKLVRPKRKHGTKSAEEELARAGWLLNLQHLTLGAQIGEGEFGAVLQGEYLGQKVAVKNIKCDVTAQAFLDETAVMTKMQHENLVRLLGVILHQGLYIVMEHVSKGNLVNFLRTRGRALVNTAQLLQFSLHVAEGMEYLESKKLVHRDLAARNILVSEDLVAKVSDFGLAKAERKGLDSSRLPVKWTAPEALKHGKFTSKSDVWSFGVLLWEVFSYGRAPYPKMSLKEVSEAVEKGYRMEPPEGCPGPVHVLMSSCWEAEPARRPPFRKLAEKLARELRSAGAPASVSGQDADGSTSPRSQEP
T7 sequence (Q13131 whole entry): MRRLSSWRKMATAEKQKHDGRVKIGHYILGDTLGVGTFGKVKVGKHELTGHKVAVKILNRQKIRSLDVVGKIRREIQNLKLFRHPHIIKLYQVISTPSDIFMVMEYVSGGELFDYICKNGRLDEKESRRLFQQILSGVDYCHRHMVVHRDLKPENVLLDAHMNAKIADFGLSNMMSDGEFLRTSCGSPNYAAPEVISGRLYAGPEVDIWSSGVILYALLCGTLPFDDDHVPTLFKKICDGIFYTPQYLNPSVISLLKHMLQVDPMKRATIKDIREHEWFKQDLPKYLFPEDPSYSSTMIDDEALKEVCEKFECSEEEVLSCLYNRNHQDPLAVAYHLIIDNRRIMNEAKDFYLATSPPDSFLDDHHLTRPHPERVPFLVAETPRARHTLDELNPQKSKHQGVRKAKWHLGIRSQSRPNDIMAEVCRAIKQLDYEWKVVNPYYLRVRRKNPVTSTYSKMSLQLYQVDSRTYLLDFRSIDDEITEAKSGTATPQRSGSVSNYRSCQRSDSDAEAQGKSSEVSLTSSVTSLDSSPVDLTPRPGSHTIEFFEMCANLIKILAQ
PAK2, sequence (Q13177 whole entry): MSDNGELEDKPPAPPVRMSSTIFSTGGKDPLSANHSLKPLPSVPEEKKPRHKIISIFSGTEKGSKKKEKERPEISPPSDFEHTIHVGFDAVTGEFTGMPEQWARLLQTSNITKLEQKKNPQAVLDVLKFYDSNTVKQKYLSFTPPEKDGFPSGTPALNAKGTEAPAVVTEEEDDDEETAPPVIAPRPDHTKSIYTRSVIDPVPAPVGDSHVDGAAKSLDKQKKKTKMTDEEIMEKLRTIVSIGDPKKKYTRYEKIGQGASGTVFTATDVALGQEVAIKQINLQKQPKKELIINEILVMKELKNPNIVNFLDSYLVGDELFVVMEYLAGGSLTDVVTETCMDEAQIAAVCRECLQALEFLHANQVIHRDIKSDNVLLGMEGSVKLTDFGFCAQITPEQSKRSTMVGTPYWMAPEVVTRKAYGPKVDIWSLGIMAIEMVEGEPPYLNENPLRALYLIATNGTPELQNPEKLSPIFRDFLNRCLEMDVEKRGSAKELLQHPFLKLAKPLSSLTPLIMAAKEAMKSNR

`C[C@@H]1CC(=O)NN=C1c1ccc(NN=C(C#N)C#N)cc1` [levosimendan] gave a remaining binding at 100 µM (EPHB3) of 96%, a remaining binding at 100 µM [1] of 62% and a remaining binding at 10 µM [2, 4] of 85%. It also gave a remaining binding at 100 µM [2, 5] of 27%, a remaining binding at 100 µM (YANK3) of 73% and a remaining binding at 100 µM (PAK2) of 78%. The remaining binding at 10 µM (AURKB; [4]) was 75%, the remaining binding at 100 µM (AURKB; [5]) was 28% and the remaining binding at 100 µM (BRSK2) was 100%. It also gave a remaining binding at 100 µM (ANKK1) of 77%, a remaining binding at 100 µM (IKK-alpha) of 59% and a remaining binding at 100 µM (SRPK3) of 63%. It also gave a remaining binding at 10 µM (BUB1; [4]) of 94%, a remaining binding at 100 µM (BUB1; [5]) of 53% and a remaining binding at 100 µM [3] of 91%. For the same compound, the remaining binding at 100 µM (NEK7) was 100%, the remaining binding at 10 µM (MEK5; [4]) was 17% and the remaining binding at 100 µM (MEK5; [5]) was 2.6%. For the same compound, the remaining binding at 100 µM (CTK) was 72%, the remaining binding at 100 µM (PIK3CA(Q546K)) was 100% and the remaining binding at 100 µM (AMPK-alpha1) was 83%. It also gave a remaining binding at 100 µM (LKB1) of 100%.
